Columns and labels:
Experiment in all cases: EC50 for viability (resazurin, 96 h)
HCT116 = conditions: RPMI+GlutaMAX (10% FBS, 1% P/S)
SW620 MTHFD2 -/- = system: SW620 MTHFD2 -/-
SW620 MTHFD2-/- = conditions: RPMI+GlutaMAX (5% dFBS, 1% P/S)
SW620 WT = system: SW620 WT
SW620 = system: SW620

Nc1nc(N)c(CC(=O)Nc2cnc(C(=O)N[C@@H](CCC(=O)O)C(=O)O)c(F)c2)c(=O)[nH]1 [TH9619]
EC50 for viability [nM]
Conditions	metabolite supplement: Hypoxanthine	metabolite supplement: Hypoxanthine + Formate	metabolite supplement: Thymidine
HCT116	13.5	–	1190
SW620 MTHFD2-/-	4230	30.1	–

Conditions	EC50 for viability [nM]
SW620 MTHFD2 -/-, RPMI+GlutaMAX (5% dFBS, 1% P/S), metabolite supplement: Hypoxanthine	25
SW620 MTHFD2 -/-, RPMI+GlutaMAX (5% dFBS, 1% P/S), metabolite supplement: Sodium Formate	6.43
SW620 MTHFD2 -/-, RPMI+GlutaMAX (5% dFBS, 1% P/S), metabolite supplement: Thymidine	0.821
SW620 MTHFD2 -/-, RPMI+GlutaMAX (5% dFBS, 1% P/S), metabolite supplement: Thymidine + Sodium Formate	> 10000
SW620 MTHFD2 -/-, RPMI+GlutaMAX (5% dFBS, 1% P/S), metabolite supplement: Vehicle	1.03
SW620 MTHFD2 -/-, RPMI+GlutaMAX (10% FBS, 1% P/S), metabolite supplement: None	2.82
SW620 MTHFD2 -/-, RPMI+GlutaMAX (10% dFBS, 1% P/S), metabolite supplement: None	993
SW620 WT, RPMI+GlutaMAX (5% dFBS, 1% P/S), metabolite supplement: Adenine	18.9
SW620 WT, RPMI+GlutaMAX (5% dFBS, 1% P/S), metabolite supplement: Adenosine	18.3
SW620 WT, RPMI+GlutaMAX (5% dFBS, 1% P/S), metabolite supplement: Guanosine	24.2
SW620 WT, RPMI+GlutaMAX (5% dFBS, 1% P/S), metabolite supplement: Hypoxanthine	19.5
SW620 WT, RPMI+GlutaMAX (5% dFBS, 1% P/S), metabolite supplement: Hypoxanthine + AICAr 10 µM	19.7
SW620 WT, RPMI+GlutaMAX (5% dFBS, 1% P/S), metabolite supplement: Hypoxanthine + AICAr 30 µM	30.3
SW620 WT, RPMI+GlutaMAX (5% dFBS, 1% P/S), metabolite supplement: Hypoxanthine + AICAr 50 µM	75.9
SW620 WT, RPMI+GlutaMAX (5% dFBS, 1% P/S), metabolite supplement: Hypoxanthine + AICAr 100 µM	1670
SW620 WT, RPMI+GlutaMAX (5% dFBS, 1% P/S), metabolite supplement: Sodium Formate	944
SW620 WT, RPMI+GlutaMAX (5% dFBS, 1% P/S), metabolite supplement: Thymidine	1900
SW620 WT, RPMI+GlutaMAX (5% dFBS, 1% P/S), metabolite supplement: Thymidine + Sodium Formate	> 10000
SW620 WT, RPMI+GlutaMAX (5% dFBS, 1% P/S), metabolite supplement: Vehicle	861
SW620 WT, RPMI+GlutaMAX (5% dFBS, 1% P/S, 10 uM Hypoxanthine), metabolite supplement: Thymidine 0.1 uM	18.9
SW620 WT, RPMI+GlutaMAX (5% dFBS, 1% P/S, 10 uM Hypoxanthine), metabolite supplement: Thymidine 0.5 uM	66.9
SW620 WT, RPMI+GlutaMAX (5% dFBS, 1% P/S, 10 uM Hypoxanthine), metabolite supplement: Thymidine 1uM	3910
SW620 WT, RPMI+GlutaMAX (5% dFBS, 1% P/S, 10 uM Hypoxanthine), metabolite supplement: Thymidine 5uM	> 10000
SW620 WT, RPMI+GlutaMAX (5% dFBS, 1% P/S, 10 uM Hypoxanthine), metabolite supplement: Thymidine 10 uM	> 10000
SW620 WT, RPMI+GlutaMAX (5% dFBS, 1% P/S, 10 uM Hypoxanthine), metabolite supplement: Thymidine 25 uM	> 10000
SW620 WT, RPMI+GlutaMAX (5% dFBS, 1% P/S, 10 uM Hypoxanthine), metabolite supplement: Thymidine 50 uM	> 10000
SW620 WT, RPMI+GlutaMAX (5% dFBS, 1% P/S, 50 uM Hypoxanthine), metabolite supplement: Thymidine 0.1 uM	17.4
SW620 WT, RPMI+GlutaMAX (5% dFBS, 1% P/S, 50 uM Hypoxanthine), metabolite supplement: Thymidine 0.5 uM	26.3
SW620 WT, RPMI+GlutaMAX (5% dFBS, 1% P/S, 50 uM Hypoxanthine), metabolite supplement: Thymidine 1uM	31.9
SW620 WT, RPMI+GlutaMAX (5% dFBS, 1% P/S, 50 uM Hypoxanthine), metabolite supplement: Thymidine 5uM	> 10000
SW620 WT, RPMI+GlutaMAX (5% dFBS, 1% P/S, 50 uM Hypoxanthine), metabolite supplement: Thymidine 10 uM	> 10000
SW620 WT, RPMI+GlutaMAX (5% dFBS, 1% P/S, 50 uM Hypoxanthine), metabolite supplement: Thymidine 25 uM	> 10000
SW620 WT, RPMI+GlutaMAX (5% dFBS, 1% P/S, 50 uM Hypoxanthine), metabolite supplement: Thymidine 50 uM	> 10000
SW620 WT, RPMI+GlutaMAX (10% FBS, 1% P/S), metabolite supplement: None	32.9
SW620 WT, RPMI+GlutaMAX (10% dFBS, 1% P/S), metabolite supplement: None	4.93
SW620, HPLM (5% dFBS, 1% P/S), metabolite supplement: Vehicle	11.3
SW620, RPMI+GlutaMAX (5% FBS, 1% P/S), metabolite supplement: Vehicle	24.9
SW620, RPMI+GlutaMAX (5% dFBS, 1% P/S), metabolite supplement: 0 nM Pyrazofurin	1030
SW620, RPMI+GlutaMAX (5% dFBS, 1% P/S), metabolite supplement: 25 nM Pyrazofurin	1160
SW620, RPMI+GlutaMAX (5% dFBS, 1% P/S), metabolite supplement: 50 nM Pyrazofurin	365
SW620, RPMI+GlutaMAX (5% dFBS, 1% P/S), metabolite supplement: 0.5 µM Hypoxanthine	287
SW620, RPMI+GlutaMAX (5% dFBS, 1% P/S), metabolite supplement: 1.0 µM Hypoxanthine	75.5
SW620, RPMI+GlutaMAX (5% dFBS, 1% P/S), metabolite supplement: 5.0 µM Hypoxanthine	14.1
SW620, RPMI+GlutaMAX (5% dFBS, 1% P/S), metabolite supplement: 10 µM Hypoxanthine	13.2
SW620, RPMI+GlutaMAX (5% dFBS, 1% P/S), metabolite supplement: 12,5 nM Pyrazofurin	1420
SW620, RPMI+GlutaMAX (5% dFBS, 1% P/S), metabolite supplement: 25 µM Hypoxanthine	14.6
SW620, RPMI+GlutaMAX (5% dFBS, 1% P/S), metabolite supplement: 50 µM Hypoxanthine	13.9
SW620, RPMI+GlutaMAX (5% dFBS, 1% P/S), metabolite supplement: Allopurinol	312
SW620, RPMI+GlutaMAX (5% dFBS, 1% P/S), metabolite supplement: Allopurinol + Hypoxanthine	15.5
SW620, RPMI+GlutaMAX (5% dFBS, 1% P/S), metabolite supplement: Deoxyuridine	267
SW620, RPMI+GlutaMAX (5% dFBS, 1% P/S), metabolite supplement: Deoxyuridine + Hypoxanthine	9.78
SW620, RPMI+GlutaMAX (5% dFBS, 1% P/S), metabolite supplement: Febuxostat	766
SW620, RPMI+GlutaMAX (5% dFBS, 1% P/S), metabolite supplement: Febuxostat + Hypoxanthine	25.2
SW620, RPMI+GlutaMAX (5% dFBS, 1% P/S), metabolite supplement: H2O2	406
SW620, RPMI+GlutaMAX (5% dFBS, 1% P/S), metabolite supplement: H2O2 + Hypoxanthine	16.3
SW620, RPMI+GlutaMAX (5% dFBS, 1% P/S), metabolite supplement: Hypoxanthine	15.4
SW620, RPMI+GlutaMAX (5% dFBS, 1% P/S), metabolite supplement: Orotic acid	309
SW620, RPMI+GlutaMAX (5% dFBS, 1% P/S), metabolite supplement: Orotic acid + Hypoxanthine	12.8
SW620, RPMI+GlutaMAX (5% dFBS, 1% P/S), metabolite supplement: Uric acid	502
SW620, RPMI+GlutaMAX (5% dFBS, 1% P/S), metabolite supplement: Vehicle	400
SW620, RPMI+GlutaMAX (5% dFBS, 1% P/S, 50 µM Hypoxanthine), metabolite supplement: 0	13.3
SW620, RPMI+GlutaMAX (10% FBS, 1% P/S), metabolite supplement: Folic acid	4000
SW620, RPMI+GlutaMAX (10% FBS, 1% P/S), metabolite supplement: Folinic acid	> 10000
SW620, RPMI+GlutaMAX (10% FBS, 1% P/S), metabolite supplement: Hypoxanthine	13.6
SW620, RPMI+GlutaMAX (10% FBS, 1% P/S), metabolite supplement: Sodium Formate	15.3
SW620, RPMI+GlutaMAX (10% FBS, 1% P/S), metabolite supplement: Thymidine	516
SW620, RPMI+GlutaMAX (10% FBS, 1% P/S), metabolite supplement: Thymidine + Folic acid	8880
SW620, RPMI+GlutaMAX (10% FBS, 1% P/S), metabolite supplement: Thymidine + Sodium Formate	538
SW620, RPMI+GlutaMAX (10% FBS, 1% P/S), metabolite supplement: Vehicle	22.6

Source: the supplement of paper PMC10132981, “Formate overflow drives toxic folate trapping in MTHFD1 inhibited cancer cells” (Nature Metabolism, 2023)
